Laboratory results: the NIST ThermoML archive (doi:10.1016/j.jct.2008.03.013)
Several values for one entry are separate records, joined by “and”; a condition that tells them apart may be missing. Equal entries are not always repeated.

Key:
[1] = xn = mol fraction of the nth substance listed; conditions: 100 kPa, Liquid
[2] = refractive index (Na D-line) (dimensionless); xn = mol fraction of the nth substance listed; conditions: 298.15 K, 100 kPa, Liquid, Standard Abbe refractometry
[3] = refractive index (Na D-line) (dimensionless); conditions: 298.15 K; 101.33 kPa; Liquid; Standard Abbe refractometry
[4] = 100 kPa, Liquid

CCCCn1cc[n+](C)c1.COS(=O)(=O)[O-] [1-butyl-3-methylimidazolium methyl sulfate] + CCO
[1]
Conditions	mass density, 298.15 K [kg/m3]	mass density, 313.15 K [kg/m3]	mass density, 328.15 K [kg/m3]	viscosity, 298.15 K [mPa·s]	viscosity, 313.15 K [mPa·s]	viscosity, 328.15 K [mPa·s]
x2 = 0	1213.43	1203.48	1193.59	182.3	84.7	45.35
x2 = 0.0651	1205.77	1195.71	1185.73	156.7	74.9	40.76
x2 = 0.0922	1202.49	1192.4	1182.4	131.9	64.1	35.9
x2 = 0.2011	1187.41	1177.24	1167.12	88.6	46.28	27.16
x2 = 0.3091	1169.23	1158.88	1148.61	56.32	31.64	19.89
x2 = 0.402	1150.09	1139.56	1129.14	37.85	22.35	14.41
x2 = 0.491	1127.58	1117.04	1106.55	25.04	15.62	10.53
x2 = 0.5788	1100.78	1089.92	1079.14	16.22	10.58	7.263
x2 = 0.7142	1043.7	1032.43	1021.2	7.427	5.271	4.019
x2 = 0.807	989.09	977.5	965.92	4.349	3.197	2.503
x2 = 0.895	917.29	905.22	893.02	2.465	1.863	1.432
x2 = 0.9445	863.52	851.11	838.48	1.733	1.319	1.033

[2]
Conditions	refractive index
x2 = 0	1.47792
x2 = 0.0651	1.4759
x2 = 0.0922	1.475
x2 = 0.2011	1.4711
x2 = 0.3091	1.46633
x2 = 0.402	1.46114
x2 = 0.491	1.45512
x2 = 0.5788	1.4478
x2 = 0.7142	1.43243
x2 = 0.807	1.41714
x2 = 0.895	1.39734
x2 = 0.9445	1.38212

CCCCn1cc[n+](C)c1.COS(=O)(=O)[O-] [1-butyl-3-methylimidazolium methyl sulfate] + O
[1]
Conditions	mass density, 298.15 K [kg/m3]	mass density, 313.15 K [kg/m3]	mass density, 328.15 K [kg/m3]	viscosity, 298.15 K [mPa·s]	viscosity, 313.15 K [mPa·s]	viscosity, 328.15 K [mPa·s]
x2 = 0	1213.43	1203.48	1193.59	182.3	84.8	45.35
x2 = 0.0325	1212.91	1202.96	1193.03	177	82.8	44.8
x2 = 0.1703	1211.05	1201.02	1190.99	137	68.9	41.09
x2 = 0.2989	1208.33	1198.3	1188.25	95.4	51.5	33.85
x2 = 0.4104	1204.62	1194.57	1184.54	65.5	35.77	23.52
x2 = 0.4774	1201.72	1191.55	1181.33	50.2	27.55	18.25
x2 = 0.5886	1194.68	1184.43	1174.25	31.93	18.4	11.98
x2 = 0.6859	1185.23	1174.8	1164.26	20.28	12.03	7.862
x2 = 0.7856	1168.21	1157.61	1146.83	11.42	7.027	4.738
x2 = 0.8899	1130.52	1120.17	1109.5	5.071	3.296	2.306
x2 = 0.9466	1085.81	1076.83	1067.17	2.597	1.763	1.281

[2]
Conditions	refractive index
x2 = 0	1.47792
x2 = 0.0325	1.47746
x2 = 0.1703	1.47584
x2 = 0.2989	1.47341
x2 = 0.4104	1.47032
x2 = 0.4774	1.46814
x2 = 0.5886	1.463
x2 = 0.6859	1.45603
x2 = 0.7856	1.44395
x2 = 0.8899	1.41842
x2 = 0.9466	1.38937

CCO [ethanol]
Conditions	refractive index
[3]	1.36023

[4]
Conditions	mass density [kg/m3]	viscosity [mPa·s]
298.15 K	785.46	1.082
313.15 K	772	0.827
328.15 K	758.55	0.641

CCO [ethanol] + CCCCn1cc[n+](C)c1.COS(=O)(=O)[O-]
[1], x1 = 1
Conditions	mass density [kg/m3]	viscosity [mPa·s]
298.15 K	785.46	1.082
313.15 K	772	0.827
328.15 K	758.55	0.641

Conditions	refractive index
[2], x1 = 1	1.36023

CCCCn1cc[n+](C)c1.COS(=O)(=O)[O-] [1-butyl-3-methylimidazolium methyl sulfate]
Conditions	refractive index
[3]	1.47792

[4]
Conditions	mass density [kg/m3]	viscosity
298.15 K	1213.43	182.3 mPa·s
313.15 K	1203.48	84.8 mPa·s and 84.7 mPa·s
328.15 K	1193.59	45.35 mPa·s
